This note sets out measurements from PubChem BioAssay AID1033 (Sanford-Burnham Center for Chemical Genomics, 2008).

Molecules are shown by their SMILES. Activity calls are given as the source filed them. The rule behind the calls is not given here.

In this test the target is Chaperone protein DnaK (Escherichia coli (strain K12)) (UniProt P0A6Y8). Put plainly: binders of DnaK substrate-binding domain, biophysical, NMR, chaperone (AID 1033). Particulars: Purified DnaK SBD, NMR ligand binding.
Sequence of Chaperone protein DnaK (Escherichia coli (strain K12)) (P0A6Y8 whole entry, looked up, the tested form may be a part): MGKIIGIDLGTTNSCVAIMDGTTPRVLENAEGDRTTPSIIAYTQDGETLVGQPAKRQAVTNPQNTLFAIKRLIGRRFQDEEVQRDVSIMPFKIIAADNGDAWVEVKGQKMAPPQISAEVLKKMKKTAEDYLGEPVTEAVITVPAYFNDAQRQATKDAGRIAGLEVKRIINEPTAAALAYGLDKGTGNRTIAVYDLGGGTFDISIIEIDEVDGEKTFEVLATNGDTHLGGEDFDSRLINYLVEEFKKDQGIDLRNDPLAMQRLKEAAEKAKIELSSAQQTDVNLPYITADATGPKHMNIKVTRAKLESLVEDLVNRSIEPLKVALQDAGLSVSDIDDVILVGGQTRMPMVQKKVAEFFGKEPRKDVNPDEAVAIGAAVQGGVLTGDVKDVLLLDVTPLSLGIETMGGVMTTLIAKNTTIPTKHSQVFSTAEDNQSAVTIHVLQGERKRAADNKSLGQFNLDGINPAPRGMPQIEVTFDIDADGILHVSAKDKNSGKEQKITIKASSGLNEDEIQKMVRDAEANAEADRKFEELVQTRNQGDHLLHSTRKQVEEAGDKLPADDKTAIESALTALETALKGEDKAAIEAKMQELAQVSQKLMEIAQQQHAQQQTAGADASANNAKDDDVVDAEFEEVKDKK
On to `O=c1ccc(=O)n(CN2CCc3ccccc3C2)[nH]1`, for which the Kd is > 4 mM (inactive).

As for `COc1cc(C/C=C/c2ccccc2)c(OC)cc1O`, the Kd is > 4 mM (inactive).

Take `CCOC(=O)c1c(C)cc(O)cc1O`: the Kd is > 4 mM (inactive).

As for `COc1c2ccoc2nc2c(OC)c(OCC(O)C(C)(C)O)ccc12` (stereo unspecified), the Kd was > 4 mM (inactive).

For the compound `CC(=O)c1ccc(NS(=O)(=O)c2cccc(C)c2)cc1`, the Kd was > 4 mM (inactive).

Regarding `Cc1cc(NC(=O)Cc2c(F)cccc2Cl)no1`, the Kd is > 4 mM (inactive).

`NC(=O)Cn1cnc2ccccc21`: the Kd is > 4 mM (inactive).

Turning to `Nc1cccc(NC(=O)c2ccco2)c1`, the Kd was > 4 mM (inactive).

Take `OC[C@@H](O)[C@@H](O[C@@H]1O[C@H](CO)[C@@H](O)[C@H](O)[C@H]1O)[C@H](O)[C@@H](O)CO`: the Kd is > 4 mM (inactive).

On to `O=C(NCc1cccc(Cl)c1)c1ccco1`, for which the Kd was > 4 mM (inactive).

With `Cc1cc(O)cc(=O)n1CCCC(=O)O`, the Kd was > 4 mM (inactive).

Regarding `COC(=O)Nc1ccc2ncn(C)c(=O)c2c1`, the Kd is > 4 mM (inactive).

Consider `NC(=O)NC(=O)Nc1ccc(Cl)cc1`, for which the Kd is > 4 mM (inactive).

Consider `CCCS(=O)(=O)N1CCN(c2ccccc2F)CC1`, for which the Kd is > 4 mM (inactive).

For `Cc1nc(N2CCOCC2)[nH]c(=O)c1C`, the Kd was > 4 mM (inactive).

Take `Cc1ccc(S(=O)(=O)/N=C2\NC(=O)CS2)cc1`: the Kd was > 4 mM (inactive).

As to `OCc1ccc(-n2cccn2)cc1`, the Kd is > 4 mM (inactive).

With `CC1(C)C=Cc2c(cc3occ(-c4ccc5c(c4)OCO5)c(=O)c3c2O)O1`, the Kd was > 4 mM (inactive).

Consider `Oc1ccc(C2SCCS2)cc1`, for which the Kd is > 4 mM (inactive).

Consider `COc1cccc(/C=C/C(=O)O)c1C(C)C`, for which the Kd is > 4 mM (inactive).

Turning to `CCn1nnc2c(NCc3ccccn3)ncnc21`, the Kd was > 4 mM (inactive).

For `O=[N+]([O-])c1cccc(-c2c[n+](=O)c3c(n2[O-])CCC3)c1`, the Kd was > 4 mM (inactive).

On to `CC(C)Oc1ccc(NC(N)=O)cc1`, for which the Kd was > 4 mM (inactive).

Consider `Cc1cc(N)no1`, for which the Kd is > 4 mM (inactive).

Take `Cc1nc2ccccc2c(=O)n1-c1cccc(O)c1`: the Kd was > 4 mM (inactive).

Regarding `Cc1c(N=CN(C)C)c(=O)n(-c2ccccc2)n1C`, the Kd was > 4 mM (inactive).

Turning to `CCOC(=O)c1c(C)[nH]c2ccc(O)cc12`, the Kd was > 4 mM (inactive).

For the compound `CN1CCN(C(=O)C2CCCNC2)CC1` (stereo unspecified), the Kd is > 4 mM (inactive).

In the case of `CNC(=S)N1CCN=C1Nc1nc(C)cc(C)n1`, the Kd is > 4 mM (inactive).

With `O=S1(=O)CCC(N2CCCCC2)C1` (stereo unspecified), the Kd was > 4 mM (inactive).

Turning to `OC[C@H]1O[C@@H](n2cnc3c(NCc4ccco4)ncnc32)[C@H](O)[C@@H]1O`, the Kd was > 4 mM (inactive).

For the compound `COc1ccc(-c2nc3nc(C)cc(C)n3n2)cc1`, the Kd is > 4 mM (inactive).

Take `N=c1c2c3c(sc2ncn1N)CCCC3`: the Kd is > 4 mM (inactive).

For `CC1=C/C(=C\c2c(O)[nH]c(=O)[nH]c2=O)C(C)=N1`, the Kd is > 4 mM (inactive).

On to `COCC(=O)Nc1nc2ccc(C)cc2s1`, for which the Kd was > 4 mM (inactive).

Turning to `COc1c2ccoc2c(OC)c2oc(=O)ccc12`, the Kd is > 4 mM (inactive).

For the compound `O=C(O[C@@H]1Cc2c(O)cc(O)cc2O[C@@H]1c1cc(O)c(O)c(O)c1)c1cc(O)c(O)c(O)c1`, the Kd was > 4 mM (inactive).

Take `N/C(=N/S(=O)(=O)c1cccs1)c1ccccc1`: the Kd was > 4 mM (inactive).

As for `O=C(Nc1ccon1)c1cccc(Cl)c1`, the Kd is > 4 mM (inactive).

In the case of `c1cncc(Nc2nc(-c3ccncc3)cs2)c1`, the Kd is > 4 mM (inactive).

As to `O=C(/C=C(\O)c1ccccc1)c1ccccc1O`, the Kd is > 4 mM (inactive).

Turning to `Nc1nc2ccc(N3CCOCC3)cc2s1`, the Kd was > 4 mM (inactive).

Turning to `Cc1cccc(CSc2nncc(=O)[nH]2)c1`, the Kd is > 4 mM (inactive).

Turning to `CCc1c(C)[nH]c(=S)c(C(N)=O)c1C`, the Kd was > 4 mM (inactive).

Turning to `Cc1nc(SCC#N)c2c(C)c(C)sc2n1`, the Kd was > 4 mM (inactive).

In the case of `Fc1ccc2onc(C3CCNCC3)c2c1`, the Kd was > 4 mM (inactive).

In the case of `Nc1ccc2c(c1)C(=O)OC2`, the Kd was > 4 mM (inactive).

`O=CN1CCN(C(=O)c2ccc(F)cc2)CC1`: the Kd was > 4 mM (inactive).

As for `O=C(NCc1ccco1)c1ccc(=O)[nH]c1`, the Kd was > 4 mM (inactive).

For `O=C(CCc1n[nH]c(=O)[nH]c1=O)NCc1ccccc1`, the Kd is > 4 mM (inactive).

Turning to `CC(=O)N1C(=S)NC(=O)/C1=C\c1cccnc1`, the Kd is > 4 mM (inactive).

As to `NC(=O)C1(S(=O)(=O)c2ccccc2)CC1`, the Kd was > 4 mM (inactive).

Turning to `O=C(O)C1CSC(c2ccccc2)N1` (stereo unspecified), the Kd was > 4 mM (inactive).

For the compound `CC1=C2C(O)C(=O)OC3CC4C(C)(C)C(=O)C=C[C@]4(C)C(CC1)[C@]23C` (stereo partly specified), the Kd is > 4 mM (inactive).

As for `OCc1csc(-c2ccccc2)n1`, the Kd is > 4 mM (inactive).

Take `Cc1nc2ccc(C(=O)O)cc2[nH]1`: the Kd is > 4 mM (inactive).

With `Cc1cc(C)c2nncn2n1`, the Kd was > 4 mM (inactive).

As for `O=C(NCc1cccc(Cl)c1)c1cccnc1`, the Kd was > 4 mM (inactive).

As for `CC(=O)Oc1ccc2c(c1)c(C(C)=O)c(C)n2C`, the Kd was > 4 mM (inactive).

On to `CSc1ccc(C2NC(=O)CCC2[N+](=O)[O-])cc1` (stereo unspecified), for which the Kd is > 4 mM (inactive).

Regarding `CCCOn1nnnc1-c1ccccc1`, the Kd was > 4 mM (inactive).

As to `CCCn1c(C)cc(=O)[nH]c1=O`, the Kd was > 4 mM (inactive).

On to `O=C(O)CC[N+](=O)[O-]`, for which the Kd is > 4 mM (inactive).

With `Nc1nc(SCC(=O)c2ccc([N+](=O)[O-])cc2)n[nH]1`, the Kd was > 4 mM (inactive).

Regarding `CN(C)S(=O)(=O)Nc1ccc(Br)cc1F`, the Kd was > 4 mM (inactive).

On to `Cc1ccc(S(=O)(=O)CC(=O)N(C)C)cc1`, for which the Kd was > 4 mM (inactive).

As for `Cc1scc(C(=O)Nc2ccon2)c1-c1ccccc1`, the Kd was > 4 mM (inactive).

On to `CC1CC[C@@]2(OC1)O[C@H]1CC3C4CC[C@@H]5C[C@@H](O)CC[C@]5(C)C4CC[C@]3(C)[C@H]1[C@@H]2C` (stereo partly specified), for which the Kd was > 4 mM (inactive).

With `COc1ccc2c(C)cc(=O)oc2c1`, the Kd is > 4 mM (inactive).

On to `CC(C)(C)CC(=O)NNC(=O)c1cnccn1`, for which the Kd is > 4 mM (inactive).

Take `Cc1[nH]c2ccccc2c(=O)c1CO`: the Kd is > 4 mM (inactive).

Take `COc1ccc(Cl)cc1NC(=O)C(N)=O`: the Kd is > 4 mM (inactive).

Consider `c1ccc(-c2csc3ncn4nnnc4c23)cc1`, for which the Kd was > 4 mM (inactive).

Consider `COc1c2c(cc3cc[n+](C)cc13)OCO2`, for which the Kd was > 4 mM (inactive).

For the compound `O=C(O)Cc1noc2ccccc12`, the Kd is > 4 mM (inactive).

Turning to `COc1cccc(-c2nn(-c3ccccc3)cc2CO)c1`, the Kd was > 4 mM (inactive).
